Reference: US20250271426A1, “REDUCTION OF BITTER TASTE OF ACTIVE PHARMACEUTICAL INGREDIENTS AND RELATED ASSAYS AND SCREENING METHODS” (Firmenich Incorporated, priority 2022, published 2025)

The molecules below were run against T1, T2R receptor SEQ ID NO: 2 (S2) (Homo sapiens, UniProt Q9NYW2) (assay: FLIPR calcium assay, cells with promiscuous G protein transfected with bitter receptor cDNA). Conditions: responsive if cellular response of >10% over baseline, Fluo4-AM.
T1 construct: expressed in transfected cells; host or cells: cells expressing a promiscuous G protein (e.g., G16g44)
T1 sequence (Q9NYW2 1-309): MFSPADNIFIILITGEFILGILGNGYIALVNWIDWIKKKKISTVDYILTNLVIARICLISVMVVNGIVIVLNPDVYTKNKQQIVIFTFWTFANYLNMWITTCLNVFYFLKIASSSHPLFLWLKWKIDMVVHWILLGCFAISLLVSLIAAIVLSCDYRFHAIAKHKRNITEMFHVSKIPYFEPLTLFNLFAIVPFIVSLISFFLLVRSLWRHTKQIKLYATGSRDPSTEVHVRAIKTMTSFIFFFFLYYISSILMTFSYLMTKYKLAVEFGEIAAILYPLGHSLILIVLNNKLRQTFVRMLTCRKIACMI
Assay type: cell-based
How it was run: (§1)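 Fluo4-AM calcium imaging on FLIPR, agonist added during recording. Host: G16g44 cells, one receptor cDNA per transfection, 28 h culture. Activity cutoff >10% over baseline.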

Structure (SMILES) | S2 positive response of T2R receptor to API
CN(C)CCOC(c1ccccc1)c1ccccc1 [Diphenhydramine] | + (a “+” to indicate whether a particular T2R receptor showed a positive response to a particular API)
CCN(CC)CCCC(C)Nc1ccnc2cc(Cl)ccc12 (centres unmarked) [Chloroquine] | + (a “+” to indicate whether a particular T2R receptor showed a positive response to a particular API)
COc1ccccc1OCC(O)CO (centres unmarked) [Guaifenesin] | + (a “+” to indicate whether a particular T2R receptor showed a positive response to a particular API)
CN(C)CCC=C1c2ccccc2COc2ccccc21 [Doxepin] | + (a “+” to indicate whether a particular T2R receptor showed a positive response to a particular API)
CN(C)CCOC(C)(c1ccccc1)c1ccccn1 (centres unmarked) [Doxylamine] | + (a “+” to indicate whether a particular T2R receptor showed a positive response to a particular API)
O=C(O)COCCN1CCN(C(c2ccccc2)c2ccc(Cl)cc2)CC1 (centres unmarked) [Cetirizine] | + (a “+” to indicate whether a particular T2R receptor showed a positive response to a particular API)

What follows are molecules tested against T2, T2R receptor SEQ ID NO: 1 (S1) (Homo sapiens, UniProt Q9NYW7) in the same assay as above. Conditions: responsive if cellular response of >10% over baseline, Fluo4-AM.
T2 construct: expressed in transfected cells; host or cells: cells expressing a promiscuous G protein (e.g., G16g44)
T2 sequence (Q9NYW7 1-299): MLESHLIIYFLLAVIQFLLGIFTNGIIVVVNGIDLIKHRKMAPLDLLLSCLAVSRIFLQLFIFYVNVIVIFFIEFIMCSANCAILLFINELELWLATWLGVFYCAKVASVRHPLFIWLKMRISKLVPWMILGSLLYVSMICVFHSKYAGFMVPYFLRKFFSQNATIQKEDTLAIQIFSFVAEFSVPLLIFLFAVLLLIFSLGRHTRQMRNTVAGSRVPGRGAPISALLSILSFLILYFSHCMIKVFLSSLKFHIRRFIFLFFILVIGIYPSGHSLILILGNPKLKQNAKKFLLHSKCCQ
Assay type: cell-based
How it was run: as §1

Structure (SMILES) | S1 positive response of T2R receptor to API
CN(C)CCOC(c1ccccc1)c1ccccc1 [Diphenhydramine] | + (a “+” to indicate whether a particular T2R receptor showed a positive response to a particular API)
CCN(CC)CCCC(C)Nc1ccnc2cc(Cl)ccc12 (centres unmarked) [Chloroquine] | + (a “+” to indicate whether a particular T2R receptor showed a positive response to a particular API)
COc1ccccc1OCC(O)CO (centres unmarked) [Guaifenesin] | + (a “+” to indicate whether a particular T2R receptor showed a positive response to a particular API)
CN(C)CCC=C1c2ccccc2COc2ccccc21 [Doxepin] | + (a “+” to indicate whether a particular T2R receptor showed a positive response to a particular API)
CN(C)CCOC(C)(c1ccccc1)c1ccccn1 (centres unmarked) [Doxylamine] | + (a “+” to indicate whether a particular T2R receptor showed a positive response to a particular API)
O=C(O)COCCN1CCN(C(c2ccccc2)c2ccc(Cl)cc2)CC1 (centres unmarked) [Cetirizine] | + (a “+” to indicate whether a particular T2R receptor showed a positive response to a particular API)

Each molecule was assayed against T3, T2R receptor SEQ ID NO: 4 (S4) (Homo sapiens, UniProt Q9NYV8) in the same assay as above. Conditions: responsive if cellular response of >10% over baseline, Fluo4-AM.
T3 construct: expressed in transfected cells; host or cells: cells expressing a promiscuous G protein (e.g., G16g44)
T3 sequence (Q9NYV8 1-317): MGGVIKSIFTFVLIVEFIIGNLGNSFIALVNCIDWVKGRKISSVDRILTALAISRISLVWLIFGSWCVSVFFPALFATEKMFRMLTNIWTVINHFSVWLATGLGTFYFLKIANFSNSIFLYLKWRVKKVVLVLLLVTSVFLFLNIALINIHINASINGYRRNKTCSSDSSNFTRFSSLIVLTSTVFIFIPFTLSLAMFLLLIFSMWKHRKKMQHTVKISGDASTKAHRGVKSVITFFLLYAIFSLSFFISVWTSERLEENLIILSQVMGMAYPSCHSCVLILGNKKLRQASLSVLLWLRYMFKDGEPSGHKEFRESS
Assay type: cell-based
How it was run: as §1

Structure (SMILES) | S4 positive response of T2R receptor to API
CN(C)CCOC(c1ccccc1)c1ccccc1 [Diphenhydramine] | + (a “+” to indicate whether a particular T2R receptor showed a positive response to a particular API)
CCN(CC)CCCC(C)Nc1ccnc2cc(Cl)ccc12 (centres unmarked) [Chloroquine] | + (a “+” to indicate whether a particular T2R receptor showed a positive response to a particular API)
COc1ccccc1OCC(O)CO (centres unmarked) [Guaifenesin] | + (a “+” to indicate whether a particular T2R receptor showed a positive response to a particular API)
CN(C)CCC=C1c2ccccc2COc2ccccc21 [Doxepin] | + (a “+” to indicate whether a particular T2R receptor showed a positive response to a particular API)
CN(C)CCOC(C)(c1ccccc1)c1ccccn1 (centres unmarked) [Doxylamine] | + (a “+” to indicate whether a particular T2R receptor showed a positive response to a particular API)
O=C(O)COCCN1CCN(C(c2ccccc2)c2ccc(Cl)cc2)CC1 (centres unmarked) [Cetirizine] | + (a “+” to indicate whether a particular T2R receptor showed a positive response to a particular API)

These molecules were tested against T4, T2R receptor SEQ ID NO: 6 (S6) (Homo sapiens, UniProt P59540) in the same assay as above. Conditions: responsive if cellular response of >10% over baseline, Fluo4-AM.
T4 construct: expressed in transfected cells; host or cells: cells expressing a promiscuous G protein (e.g., G16g44)
T4 sequence (P59540 1-309): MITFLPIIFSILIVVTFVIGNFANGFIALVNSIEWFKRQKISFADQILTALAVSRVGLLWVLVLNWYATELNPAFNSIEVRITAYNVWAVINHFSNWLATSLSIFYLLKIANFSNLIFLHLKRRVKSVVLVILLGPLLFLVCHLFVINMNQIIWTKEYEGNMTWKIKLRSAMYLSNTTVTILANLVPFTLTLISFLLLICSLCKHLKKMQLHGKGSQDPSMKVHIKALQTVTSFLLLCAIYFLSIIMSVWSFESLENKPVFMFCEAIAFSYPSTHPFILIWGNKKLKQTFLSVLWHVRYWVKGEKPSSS
Assay type: cell-based
How it was run: as §1

Structure (SMILES) | S6 positive response of T2R receptor to API
CN(C)CCOC(c1ccccc1)c1ccccc1 [Diphenhydramine] | + (a “+” to indicate whether a particular T2R receptor showed a positive response to a particular API)
CCN(CC)CCCC(C)Nc1ccnc2cc(Cl)ccc12 (centres unmarked) [Chloroquine] | + (a “+” to indicate whether a particular T2R receptor showed a positive response to a particular API)
CN(C)CCC=C1c2ccccc2COc2ccccc21 [Doxepin] | + (a “+” to indicate whether a particular T2R receptor showed a positive response to a particular API)
CN(C)CCOC(C)(c1ccccc1)c1ccccn1 (centres unmarked) [Doxylamine] | + (a “+” to indicate whether a particular T2R receptor showed a positive response to a particular API)
O=C(O)COCCN1CCN(C(c2ccccc2)c2ccc(Cl)cc2)CC1 (centres unmarked) [Cetirizine] | + (a “+” to indicate whether a particular T2R receptor showed a positive response to a particular API)

The molecules below were run against T5, T2R receptor SEQ ID NO: 3 (S3) (Homo sapiens, UniProt Q9NYW0, T156M) in the same assay as above. Conditions: responsive if cellular response of >10% over baseline, Fluo4-AM.
T5 construct: expressed in transfected cells; host or cells: cells expressing a promiscuous G protein (e.g., G16g44)
T5 sequence (Q9NYW0 1-307 T156M): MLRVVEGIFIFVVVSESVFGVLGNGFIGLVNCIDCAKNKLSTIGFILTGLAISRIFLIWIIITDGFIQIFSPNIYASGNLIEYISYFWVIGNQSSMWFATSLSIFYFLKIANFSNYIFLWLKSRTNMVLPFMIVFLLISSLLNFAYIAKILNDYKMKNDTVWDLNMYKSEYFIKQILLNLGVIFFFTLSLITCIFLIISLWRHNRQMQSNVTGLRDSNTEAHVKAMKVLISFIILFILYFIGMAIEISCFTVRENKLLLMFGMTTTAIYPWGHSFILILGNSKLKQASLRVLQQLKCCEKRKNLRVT
Assay type: cell-based
How it was run: as §1

Structure (SMILES) | S3 positive response of T2R receptor to API
CN(C)CCOC(c1ccccc1)c1ccccc1 [Diphenhydramine] | + (a “+” to indicate whether a particular T2R receptor showed a positive response to a particular API)
CCN(CC)CCCC(C)Nc1ccnc2cc(Cl)ccc12 (centres unmarked) [Chloroquine] | + (a “+” to indicate whether a particular T2R receptor showed a positive response to a particular API)
COc1ccccc1OCC(O)CO (centres unmarked) [Guaifenesin] | + (a “+” to indicate whether a particular T2R receptor showed a positive response to a particular API)
CN(C)CCC=C1c2ccccc2COc2ccccc21 [Doxepin] | + (a “+” to indicate whether a particular T2R receptor showed a positive response to a particular API)
CN(C)CCOC(C)(c1ccccc1)c1ccccn1 (centres unmarked) [Doxylamine] | + (a “+” to indicate whether a particular T2R receptor showed a positive response to a particular API)
O=C(O)COCCN1CCN(C(c2ccccc2)c2ccc(Cl)cc2)CC1 (centres unmarked) [Cetirizine] | + (a “+” to indicate whether a particular T2R receptor showed a positive response to a particular API)

The molecules below were run against T6, T2R receptor SEQ ID NO: 5 (S5) (Homo sapiens, UniProt P59534) in the same assay as above. Conditions: responsive if cellular response of >10% over baseline, Fluo4-AM.
T6 construct: expressed in transfected cells; host or cells: cells expressing a promiscuous G protein (e.g., G16g44)
T6 sequence (P59534 18-338): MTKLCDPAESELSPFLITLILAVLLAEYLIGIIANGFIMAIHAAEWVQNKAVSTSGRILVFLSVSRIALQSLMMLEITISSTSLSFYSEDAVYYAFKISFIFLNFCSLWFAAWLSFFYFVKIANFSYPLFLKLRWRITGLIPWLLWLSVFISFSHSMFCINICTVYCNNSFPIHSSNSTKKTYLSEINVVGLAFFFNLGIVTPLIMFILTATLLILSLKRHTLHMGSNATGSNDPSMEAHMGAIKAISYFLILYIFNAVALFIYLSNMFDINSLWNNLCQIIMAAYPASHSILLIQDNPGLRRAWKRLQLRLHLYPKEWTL
Assay type: cell-based
How it was run: as §1

Structure (SMILES) | S5 positive response of T2R receptor to API
CN(C)CCOC(c1ccccc1)c1ccccc1 [Diphenhydramine] | + (a “+” to indicate whether a particular T2R receptor showed a positive response to a particular API)
CCN(CC)CCCC(C)Nc1ccnc2cc(Cl)ccc12 (centres unmarked) [Chloroquine] | + (a “+” to indicate whether a particular T2R receptor showed a positive response to a particular API)
COc1ccccc1OCC(O)CO (centres unmarked) [Guaifenesin] | + (a “+” to indicate whether a particular T2R receptor showed a positive response to a particular API)
CN(C)CCC=C1c2ccccc2COc2ccccc21 [Doxepin] | + (a “+” to indicate whether a particular T2R receptor showed a positive response to a particular API)
CN(C)CCOC(C)(c1ccccc1)c1ccccn1 (centres unmarked) [Doxylamine] | + (a “+” to indicate whether a particular T2R receptor showed a positive response to a particular API)
O=C(O)COCCN1CCN(C(c2ccccc2)c2ccc(Cl)cc2)CC1 (centres unmarked) [Cetirizine] | + (a “+” to indicate whether a particular T2R receptor showed a positive response to a particular API)
